According to patent publication US12577231B2, “Androgen receptor PROTACS” (GlaxoSmithKline Intellectual Property Development Limited, priority 2023, dated 2026):
Residue numbers refer to the chain shown, from its start.

Experiments:
[1] = molecular target: T1, Androgen Receptor dual T878A/L702H mutant protein (Homo sapiens, UniProt P10275, L702H/T878A); experiment: Dual Mutant (T878A/L702H) Androgen Receptor Degradation Assay (HTRF, MDA-PCa-2b cells); type: cell-based; conditions: 18 h, 18 h incubation, read-out: mean asymptote max
T1 construct: host or cells: MDA-PCa-2b
T1 sequence (P10275 1-920 L702H/T878A): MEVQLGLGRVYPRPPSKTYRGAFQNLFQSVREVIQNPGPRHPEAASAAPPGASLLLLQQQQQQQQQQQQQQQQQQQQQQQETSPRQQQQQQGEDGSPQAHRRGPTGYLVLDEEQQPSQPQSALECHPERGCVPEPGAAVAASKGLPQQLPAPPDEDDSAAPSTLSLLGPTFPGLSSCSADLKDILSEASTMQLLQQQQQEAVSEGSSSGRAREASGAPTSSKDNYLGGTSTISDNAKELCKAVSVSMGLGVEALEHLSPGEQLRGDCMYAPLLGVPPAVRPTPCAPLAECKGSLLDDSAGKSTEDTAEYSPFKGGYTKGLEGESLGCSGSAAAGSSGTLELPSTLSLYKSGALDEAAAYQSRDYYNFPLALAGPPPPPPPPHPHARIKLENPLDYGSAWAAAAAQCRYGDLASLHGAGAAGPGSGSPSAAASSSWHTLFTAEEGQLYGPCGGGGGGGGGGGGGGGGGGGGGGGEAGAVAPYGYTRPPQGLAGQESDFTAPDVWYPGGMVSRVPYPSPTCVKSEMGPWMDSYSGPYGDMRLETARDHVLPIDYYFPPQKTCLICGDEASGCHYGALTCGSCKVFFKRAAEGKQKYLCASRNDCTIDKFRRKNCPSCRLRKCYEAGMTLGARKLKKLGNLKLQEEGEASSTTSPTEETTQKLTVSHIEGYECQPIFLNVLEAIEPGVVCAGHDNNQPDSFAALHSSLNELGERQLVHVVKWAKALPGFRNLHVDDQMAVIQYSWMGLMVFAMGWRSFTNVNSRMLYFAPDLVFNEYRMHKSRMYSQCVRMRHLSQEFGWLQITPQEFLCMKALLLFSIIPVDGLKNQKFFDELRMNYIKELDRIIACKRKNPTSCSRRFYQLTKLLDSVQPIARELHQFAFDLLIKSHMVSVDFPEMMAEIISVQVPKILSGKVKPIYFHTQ
Description: Degradation of Androgen Receptor dual T878A/L702H mutant protein in human MDA-PCa-2b (ATCC) cells treated with PROTACs was quantified using the HTRF Human Androgen Receptor Detection Kit (PerkinElmer) in 384 well assay plate format. 10 mM DMSO (Sigma-Aldrich) stock solutions of PROTACs were prepared and diluted across an 11 concentration, 3-fold increment range, and 25 nL dispensed into a white opaque bottomed 384 well assay plate (Thermofisher) using an acoustic ECHO dispenser (Labcyte). Cells were cultured in growth medium (BRFF—HPC-1 (Athena ES) supplemented with 20% FBS (Gibco), penicillin 50U/mL and streptomycin 50 μg/mL (Gibco, #15140-122)) in collagen I or poly-D-lysine coated T175 flasks (Corning, #356487 or #356539, respectively). For the assay, cells were harvested from the flask, centrifuged at 200 g for 5 min and then resuspended in the growth medium. 25 μl of cell suspension containing 10,000 cells was dispensed into each well of the assay plate containing the test compounds, which was then incubated for 18 h at 37° C./5% CO2. Control wells were included on each assay plate, with assay medium without cells being the no AR remaining 100% effect control, and cells treated with DMSO vehicle only, without PROTAC, the 0% effect control. After 18 h incubation 8 μl of supplemented lysis buffer from HTRF kit was added to each well and the plate shaken at 500 rpm for 1 h at room temperature. 8 μl of antibody mix in Detection buffer from HTRF kit was added to each well and the plate was incubated for 2 h in dark at mom temperature. The fluorescence was measured at both 620 nm and 665 nm using an excitation wavelength of 337 nm with a PHERAstar microplate reader (BMG Labtech) and the % AR protein remaining in each well was calculated by normalising the HTRF ratio (665 nm signal/620 nm signal) value to the control wells mentioned above. Parameters corresponding to the potency and efficacy estimates of the PROTACs were obtained from these normalised values using curve fitting software (IDBS ActivityBase). These included the DC50 and the Dmax estimates. Two versions of the DC50, called relative DC50 and absolute DC50, were typically generated. These are the inflection point of a fitted 4 parameter sigmoidal response curve and the interpolated concentration of PROTAC corresponding to 50% of the protein being degraded, respectively. The Dmax parameter was the maximum experimentally observed degradation and the asymptote max parameter the fitted response curve asymptote maximum.

[2] = molecular target: T2, Androgen Receptor protein in human LnCaP cells (Homo sapiens, UniProt P10275, T878A); experiment: Androgen Receptor Degradation Assay (Nano-Glo HiBiT, LnCaP cells); type: cell-based; conditions: 18 h, HiBiT-tagged AR LnCaP cells, 18 h incubation, fitted curve asymptote maximum of degradation, read-out: mean asymptote max
T2 construct: the AR gene was modified, using CRISPR/Cas9 editing, so the expressed AR protein included an 11 amino acid HiBiT tag; endogenous in cells; host or cells: clonal LnCaP derived cell line, endogenous AR gene edited by CRISPR/Cas9
T2 sequence (P10275 1-920 T878A): T1 sequence (P10275 1-920 L702H/T878A) with H702L
Description: Degradation of Androgen Receptor protein in human LnCaP cells treated with PROTACs was quantified using the Nano-Glo® HiBiT Lytic Detection System (Promega) in 384 well assay plate format. A clonal LnCaP derived cell line was first established in which the AR gene was modified, using CRISPR/Cas9 editing, so the expressed AR protein included an 11 amino acid HiBiT tag at its amino-terminus. 10 mM DMSO stock solutions of PROTACs were prepared and diluted across an 11 concentration, 3 fold increment range, and 25 nL dispensed into a white opaque bottomed 384 well assay plate (Thermofisher) using an acoustic ECHO dispenser (Labcyte). Cells were grown in cell culture medium (RPMI 1640 supplemented with 15% FBS, penicillin 50U/mL and streptomycin 50 ug/mL (Thermofisher)). For the assay, cells were detached from flask and resuspended with assay medium (FluoroBrite™ DMEM supplemented with 10% heat inactivated FBS, penicillin 50U/mL and streptomycin 50 ug/mL (Thermofisher)). The cell suspension was centrifuged at 400 g for 5 min and the pellet resuspended in assay medium. 25 μL of cell suspension containing 10,000 cells was dispensed into each well of the assay plate containing a serial dilution of test compounds, which was then incubated for 18 h at 37° C./5% CO2. Control wells were included on each assay plate, with assay medium without cells being the no AR remaining 100% effect control, and cells treated with DMSO vehicle only, without PROTAC, the 0% effect control. 25 μL of Nano-Glo® HiBiT lysis buffer supplemented with LgBiT protein and Nano-Glo® substrate (Promega) was added to each well and the plate shaken at 500 rpm for 10 min at room temperature. The intensity of luminescence was measured using a PHERAstar microplate reader (BMG Labtech) and the % AR protein remaining in each well calculated by normalising the raw luminescence value to the above control wells. Parameters corresponding to the potency and efficacy estimates of the PROTACs were obtained from these normalised luminescence values using software (IDBS ActivityBase). These included the DC50 (concentration at which 50% of protein was degraded in M) and the Dmax (maximal degradation, in %) estimates. Two versions of the DC50, called relative DC50 and absolute DC50, were generated. These are the inflection point of a fitted 4 parameter sigmoidal response curve and the interpolated concentration of PROTAC corresponding to 50% of the protein being degraded, respectively. The corresponding pDC50 is reported as −log10(relative […]). The Dmax parameter was the maximum experimentally observed degradation and the asymptote max parameter the fitted response curve asymptote maximum.

| Dmax [1] | Dmax [2] | Compound |
| --- | --- | --- |
| ≥ 50% |  | COc1cc(O[C@H]2C(C)(C)[C@H](NC(=O)c3ccc(N4CCC(CN5CCC(n6ccc7c(N8CCC(=O)NC8=O)c(F)ccc76)CC5)CC4)c(F)c3)C2(C)C)ccc1C#N [Example 23, N-((1r,3r)-3-(4-Cyano-3-methoxyphenoxy)-2,2,4,4-tetramethylcyclobutyl)-4-(4-((4-(4-(2,4-dioxotetrahydropyrimidin-1(2H)-yl)-5-fluoro-1H-indol-1-yl)piperidin-1-yl)methyl)piperidin-1-yl)-3-fluorobenzamide] |
| ≥ 50% |  | Cc1ccc2c(O[C@H]3C(C)(C)[C@H](NC(=O)c4ccc(N5CCC(CN6CCC(n7ncc8c(N9CCC(=O)NC9=O)cccc87)CC6)CC5)c(F)c4)C3(C)C)ccc(C#N)c2n1 [Example 7, N-((1r,3r)-3-((8-cyano-2-methylquinolin-5-yl)oxy)-2,2,4,4-tetramethylcyclobutyl)-4-(4-((4-(4-(2,4-dioxotetrahydropyrimidin-1(2H)-yl)-1H-indazol-1-yl)piperidin-1-yl)methyl)piperidin-1-yl)-3-fluorobenzamide] |
|  | ≥ 50% | COc1cc(O[C@H]2C(C)(C)[C@H](NC(=O)c3ccc(N4CCC(CN5CCC(n6ncc7c(N8CCC(=O)NC8=O)ccnc76)CC5)CC4)c(F)c3)C2(C)C)ccc1C#N [Example 19, N-((1r,3r)-3-(4-Cyano-3-methoxyphenoxy)-2,2,4,4-tetramethylcyclobutyl)-4-(4-((4-(4-(2,4-dioxotetrahydropyrimidin-1(2H)-yl)-1H-pyrazolo[3,4-b]pyridin-1-yl)piperidin-1-yl)methyl)piperidin-1-yl)-3-fluorobenzamide] |
| ≥ 50% |  | COc1cc(O[C@H]2C(C)(C)[C@H](NC(=O)c3ccc(N4CCC(CN5CCC(n6ncc7c(N8CCC(=O)NC8=O)cc(F)cc76)CC5)CC4)c(F)c3)C2(C)C)ccc1C#N [Example 24, N-((1r,3r)-3-(4-Cyano-3-methoxyphenoxy)-2,2,4,4-tetramethylcyclobutyl)-4-(4-((4-(4-(2,4-dioxotetrahydropyrimidin-1(2H)-yl)-6-fluoro-1H-indazol-1-yl)piperidin-1-yl)methyl)piperidin-1-yl)-3-fluorobenzamide] |
| ≥ 50% |  | COc1cc(O[C@H]2C(C)(C)[C@H](NC(=O)c3ccc(N4CCC(CN5CCC(n6ccc7c(N8CCC(=O)NC8=O)cccc76)CC5)CC4)c(F)c3)C2(C)C)ccc1C#N [Example 22, N-((1r,3r)-3-(4-Cyano-3-methoxyphenoxy)-2,2,4,4-tetramethylcyclobutyl)-4-(4-((4-(4-(2,4-dioxotetrahydropyrimidin-1(2H)-yl)-1H-indol-1-yl)piperidin-1-yl)methyl)piperidin-1-yl)-3-fluorobenzamide] |
